Test [1] has as its system COLO 205. As to the kind of experiment: Antitumor activity against human COLO 205 cells xenografted in athymic nude mouse model assessed as tumor growth delay by measuring test to control tumor ratio at 12 mg/kg, ip administered once daily in presence of gemcitabine (Gemcitabine alone= 8%). The test is classed as functional. For orientation: In xenograft studies the graft and the host belong to different species.

In test [2] the test system is PC-3. As to the kind of experiment: Potentiation factor, ratio of IC50 for human PC-3 cells to IC50 for human PC-3 cells in presence of carboplatin. The class given is functional.
Test [3] has as its system HT-29. Kind of test: Induction of apoptosis in gemcitabine induced human HT-29 cells assessed as apoptotic cell death measured after 10 hrs by PI staining based flow cytometry analysis (reference value: 0.6%). The class given is functional. (In general: Flow cytometry measures light scatter and fluorescence of single cells or particles in a stream.)
The subject of test [4] is HT-29. Kind of test: Inhibition of gemcitabine induced cell cycle arrest in human HT-29 cells assessed as increase in G0-G1 cell population pretreated with gemcitabine followed by compound treatment and measured after 10 to 48 hrs by flow cytometry analysis. The class given is functional, cell-based. The settings on record: time 10-48 hrs.
Test [5] relates to COLO 205. As to the kind of experiment: In vivo inhibition of Chk1 in athymic nude mouse xenografted with gemcitabine treated human COLO 205 cells assessed as increase in caspase-3 level by immunohistochemical analysis. The class given is functional, cell-based. The settings on record: dose 15-30 mg/kg.
In test [6] the target is T1, Receptor-type tyrosine-protein kinase FLT3 (Homo sapiens, UniProt P36888).
T1 sequence (P36888 whole entry): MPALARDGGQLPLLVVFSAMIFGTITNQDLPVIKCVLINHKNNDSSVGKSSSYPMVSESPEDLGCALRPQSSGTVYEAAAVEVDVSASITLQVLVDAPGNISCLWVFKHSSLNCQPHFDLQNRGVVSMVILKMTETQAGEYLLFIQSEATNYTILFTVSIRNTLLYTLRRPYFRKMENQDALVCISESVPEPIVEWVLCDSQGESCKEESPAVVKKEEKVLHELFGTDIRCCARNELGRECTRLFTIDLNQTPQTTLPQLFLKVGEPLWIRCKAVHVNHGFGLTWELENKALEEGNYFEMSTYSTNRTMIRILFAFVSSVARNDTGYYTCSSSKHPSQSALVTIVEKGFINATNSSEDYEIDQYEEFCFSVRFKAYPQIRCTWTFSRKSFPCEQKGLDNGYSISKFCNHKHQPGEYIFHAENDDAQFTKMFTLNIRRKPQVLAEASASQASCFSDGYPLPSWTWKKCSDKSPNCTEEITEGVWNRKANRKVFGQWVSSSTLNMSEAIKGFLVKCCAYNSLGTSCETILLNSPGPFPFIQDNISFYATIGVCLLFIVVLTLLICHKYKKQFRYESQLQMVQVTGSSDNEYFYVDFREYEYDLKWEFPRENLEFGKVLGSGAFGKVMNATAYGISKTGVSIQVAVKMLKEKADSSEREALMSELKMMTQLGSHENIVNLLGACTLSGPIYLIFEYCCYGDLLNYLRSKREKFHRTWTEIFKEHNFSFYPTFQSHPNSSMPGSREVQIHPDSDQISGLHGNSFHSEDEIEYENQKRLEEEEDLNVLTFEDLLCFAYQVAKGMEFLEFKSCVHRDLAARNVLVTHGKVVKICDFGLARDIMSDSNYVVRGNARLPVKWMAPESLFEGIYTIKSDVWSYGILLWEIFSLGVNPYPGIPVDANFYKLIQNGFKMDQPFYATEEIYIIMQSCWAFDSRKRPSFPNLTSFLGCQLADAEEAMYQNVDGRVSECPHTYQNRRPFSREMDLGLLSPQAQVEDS
Kind of test: Inhibition of FLT3 (unknown origin).

Test [7] concerns the target Macrophage colony-stimulating factor 1 receptor (Homo sapiens, UniProt P07333). As to the kind of experiment: Inhibition of Fms (unknown origin).
Test [8] relates to COLO 205. Kind of test: Antitumor activity against human COLO 205 cells xenografted in athymic nude mouse model assessed as tumor growth inhibition at 12 mg/kg, ip administered once daily in presence of gemcitabine (Gemcitabine alone= 58%). The test is classed as functional. The settings on record: read-out: TGI.
Test [9] concerns COLO 205. Kind of test: Antitumor activity against human COLO 205 cells xenografted in athymic nude mouse model assessed as tumor growth inhibition at 4 mg/kg, ip administered twice daily in presence of gemcitabine (Gemcitabine alone= 58%). The class given is functional. The settings on record: read-out: TGI.
In test [10] the test system is COLO 205. As to the kind of experiment: Antitumor activity against human COLO 205 cells xenografted in athymic nude mouse model assessed as potentiated tumor growth inhibition at 7.5 mg/kg, ip administered once daily in presence of gemcitabine relative to control. The test is classed as functional. To be noted: read-out: TGI.
Test [11] relates to COLO 205. Kind of test: Antitumor activity against human COLO 205 cells xenografted in athymic nude mouse model assessed as potentiated tumor growth inhibition at 30 mg/kg, ip administered twice daily in presence of gemcitabine relative to control. The settings on record: read-out: TGI. The class given is functional.
In test [12] the test system is HT-29. As to the kind of experiment: Potentiation of camptothecin induced cytotoxicity in human HT-29 cells assessed as cell survival at 180 nM measured after 4 to 48 hrs by coulter counter method relative to camptothecin alone. The class given is functional. The settings on record: time 4-48 hrs, read-out: Activity.
Test [13] concerns HT-29. As to the kind of experiment: Potentiation factor, ratio of IC50 for human HT-29 cells to IC50 for human HT-29 cells in presence of mytomicin-C. The class given is functional.
Test [14] deals with HT-29. Kind of test: Inhibition of gemcitabine induced cell cycle arrest in human HT-29 cells assessed as decrease in CDK1 phosphorylation level at 360 nM by immunoblot analysis. The test is classed as functional, cell-based. The settings on record: time 2-24 hrs. (In general: In western blotting, separated proteins are transferred to a membrane and probed.)
For test [15], the system named is K562. As to the kind of experiment: Potentiation factor, ratio of IC50 for human K562 cells to IC50 for human K562 cells in presence of SN-38. The test is classed as functional.

As a reminder, the IC50 is the concentration that inhibits the measured activity by half. A higher IC50 goes with lower potency.

The structures appear in SMILES notation. Activity calls are given as the source filed them. No cut-off for these calls is given here.

Sequence of Macrophage colony-stimulating factor 1 receptor (P07333 whole entry): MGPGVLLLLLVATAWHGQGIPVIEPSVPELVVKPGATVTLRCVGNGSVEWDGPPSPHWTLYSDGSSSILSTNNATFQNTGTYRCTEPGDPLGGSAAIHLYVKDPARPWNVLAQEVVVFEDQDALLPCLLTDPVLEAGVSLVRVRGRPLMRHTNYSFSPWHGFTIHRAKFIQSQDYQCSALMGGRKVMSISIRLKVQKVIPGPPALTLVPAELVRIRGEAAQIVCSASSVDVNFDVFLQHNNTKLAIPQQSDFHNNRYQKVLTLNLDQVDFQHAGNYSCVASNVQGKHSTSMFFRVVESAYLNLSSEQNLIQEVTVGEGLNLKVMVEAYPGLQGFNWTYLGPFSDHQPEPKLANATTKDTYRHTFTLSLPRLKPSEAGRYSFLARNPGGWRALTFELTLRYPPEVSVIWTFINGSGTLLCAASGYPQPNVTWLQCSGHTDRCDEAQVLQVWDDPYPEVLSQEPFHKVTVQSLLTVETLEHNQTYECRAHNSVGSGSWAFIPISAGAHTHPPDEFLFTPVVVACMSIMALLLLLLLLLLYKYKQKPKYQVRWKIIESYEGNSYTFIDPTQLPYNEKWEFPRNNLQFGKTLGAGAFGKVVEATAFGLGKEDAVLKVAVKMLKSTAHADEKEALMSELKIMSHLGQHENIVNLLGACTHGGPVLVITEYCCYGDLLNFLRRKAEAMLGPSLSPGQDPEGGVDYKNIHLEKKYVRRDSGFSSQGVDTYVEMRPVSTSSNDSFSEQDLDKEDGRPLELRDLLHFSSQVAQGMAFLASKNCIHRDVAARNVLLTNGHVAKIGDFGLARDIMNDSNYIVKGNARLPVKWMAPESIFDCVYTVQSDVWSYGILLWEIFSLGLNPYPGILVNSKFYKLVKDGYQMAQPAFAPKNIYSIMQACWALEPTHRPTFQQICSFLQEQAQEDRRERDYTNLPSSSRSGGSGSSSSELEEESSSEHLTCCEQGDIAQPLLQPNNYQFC

For `Cn1cc(-c2[nH]c3cc(NC(=O)[C@H](N)C4CCCCC4)cc4c3c2C=NNC4=O)cn1`, the T/C in [1] came out at 8.5. Also, the PF50 in [2] came out at 3.1; in test [13] it was 3.7; in test [15], 1.9. Besides, the Activity in test [3] is listed as 0.1%. Further, in test [4], the inhibition result was “Active”. Also, the inhibition entry in [5] and in test [14] was “Dose-Dependent Effect” in each case. The half-inhibitory concentration (IC50) in test [6] is 0.051 µM; in test [7], 0.02 µM. Moreover, the inhibition in vivo at 12 mg/kg in test [8] was found to be 68%. Also, the inhibition in vivo at 4 mg/kg in test [9] worked out at 63%. Besides, the inhibition in vivo at 7.5 mg/kg in [10] worked out at 23%. Besides, in [11], the inhibition in vivo at 30 mg/kg came to 64%. The viability at 0.18 µM in test [12] was found to be 90%.

The values above are taken from ChEMBL document CHEMBL5705884, “Breaching the DNA damage checkpoint via PF-00477736, a novel small-molecule inhibitor of checkpoint kinase 1” (Mol Cancer Ther, 2008).
